Measurements: ChEMBL document CHEMBL1201862, “PubChem BioAssay data set” (2004)
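Growth conditions: 96-well plates. Treatment: test compound, 48 hours, 5 concentrations. Analysis: linear interpolation between bracketing concentrations; unreached endpoints set to highest concentration. GI50: concentration for 50% inhibition of growth.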 Calls of active or inactive are those of the source. No stated cut-off is given here; in the data, active = GI50 up to about 1.1 µM and inactive = higher.

Key:
Test in all cases: DTP human tumour cell line panel, 48 h
786-0 = test system: 786-0
A498 = test system: A498
A549 = test system: A549
COLO 205 = test system: COLO 205
HCT-116 = test system: HCT-116
HOP-92 = test system: HOP-92
HT-29 = test system: HT-29
KM12 = test system: KM12
M14 = test system: M14
NCI-H226 = test system: NCI-H226
SF-295 = test system: SF-295
SF-539 = test system: SF-539
SK-MEL-5 = test system: SK-MEL-5
SN12C = test system: SN12C
U-251 = test system: U-251
SK-MEL-2 = test system: SK-MEL-2
NCI-H522 = test system: NCI-H522

Measured: GI50

CS/C(=N\c1ccc([N+](=O)[O-])cc1C#N)NC(=O)c1ccccc1
inactive: 786-0 > 100 µM | A498 > 100 µM | A549 > 100 µM | COLO 205 > 100 µM | HCT-116 > 100 µM | HOP-92 46 µM | HT-29 > 100 µM | KM12 > 100 µM | M14 > 100 µM | NCI-H226 33.9 µM | SF-295 > 100 µM | SF-539 > 100 µM | SK-MEL-5 > 100 µM | SN12C > 100 µM | U-251 > 100 µM

CCOC(=O)C1=C(C)C2C3C(=O)OC(=O)C3C1(C)C1C(=O)OC(=O)C21 (stereo not drawn)
inactive: 786-0 > 100 µM | A498 > 100 µM | A549 > 100 µM | COLO 205 > 100 µM | HCT-116 > 100 µM | HOP-92 > 100 µM | HT-29 > 100 µM | KM12 > 100 µM | M14 > 100 µM | NCI-H226 > 100 µM | SF-295 > 100 µM | SF-539 > 100 µM | SK-MEL-2 > 100 µM | SK-MEL-5 > 100 µM | SN12C > 100 µM | U-251 > 100 µM

N#CCCN(CCC#N)C(=O)c1cccc(C(=O)N(CCC#N)CCC#N)c1
inactive: 786-0 > 100 µM | A498 > 100 µM | A549 > 69.7 µM | COLO 205 > 70.5 µM | HCT-116 > 55.6 µM | HOP-92 > 58.7 µM | HT-29 19.1 µM | KM12 > 93.3 µM | M14 > 69 µM | NCI-H522 > 100 µM | SF-295 > 77.8 µM | SF-539 > 40.9 µM | SK-MEL-2 > 100 µM | SK-MEL-5 > 56.5 µM | SN12C > 43.7 µM | U-251 > 45.8 µM

Clc1cccc(C2N3CCCCC3[C@@H]3c4[nH]c5ccccc5c4CCN23)c1 (stereo partly drawn)
inactive: 786-0 32.6 µM | A498 31.2 µM | A549 43.9 µM | HCT-116 17.1 µM | HOP-92 62.5 µM | HT-29 18.2 µM | M14 27.9 µM | SF-295 51.1 µM | SF-539 21.1 µM | SK-MEL-2 19.8 µM | SK-MEL-5 18 µM | SN12C 13.6 µM | U-251 29.2 µM

Fc1ccc(F)c(C2SCc3nc4ccccc4n32)c1 (stereo not drawn)
inactive: 786-0 > 100 µM | A498 43.8 µM | A549 71.4 µM | COLO 205 > 100 µM | HCT-116 61 µM | HOP-92 28.5 µM | HT-29 86.3 µM | KM12 72.6 µM | M14 72.1 µM | NCI-H226 > 100 µM | NCI-H522 36.1 µM | SF-295 29.5 µM | SF-539 > 100 µM | SK-MEL-5 20.3 µM | SN12C > 100 µM | U-251 > 100 µM

CCOC(=O)/C=C1\Nc2ccccc2-n2nnnc21
inactive: 786-0 > 100 µM | A498 > 100 µM | A549 > 100 µM | COLO 205 > 100 µM | HCT-116 > 100 µM | HOP-92 > 100 µM | HT-29 95.5 µM | KM12 > 100 µM | M14 > 100 µM | NCI-H226 > 100 µM | SF-295 > 100 µM | SF-539 > 100 µM | SK-MEL-2 > 100 µM | SK-MEL-5 > 100 µM | SN12C > 100 µM | U-251 22.1 µM

CSc1ccc(/C=C2\CN(C)C/C(=C\c3ccc(SC)cc3)C2=O)cc1
inactive: 786-0 54.1 µM | A498 46.8 µM | A549 > 100 µM | COLO 205 21.2 µM | HCT-116 20.4 µM | HOP-92 4.23 µM | HT-29 15.2 µM | KM12 8.75 µM | M14 92.3 µM | NCI-H226 > 100 µM | SF-295 21.1 µM | SF-539 20 µM | SK-MEL-2 39.4 µM | SK-MEL-5 48.8 µM | SN12C 23.3 µM | U-251 4.65 µM

Cc1cc(C)nc(NS(=O)(=O)c2ccc(NC(=O)c3cccc4c(Nc5ccc(S(=O)(=O)Nc6nc(C)cc(C)n6)cc5)c5ccccc5nc34)cc2)n1
inactive: 786-0 19.6 µM | A498 18.7 µM | A549 25.8 µM | COLO 205 22.9 µM | HCT-116 11.7 µM | HOP-92 18.9 µM | HT-29 20 µM | KM12 18.5 µM | M14 25.1 µM | NCI-H522 13.2 µM | SF-295 21.4 µM | SF-539 15.4 µM | SK-MEL-2 34 µM | SK-MEL-5 16.6 µM | SN12C 14.3 µM | U-251 16.4 µM

C1=C(c2ccccc2)C(OC2Oc3ccccc3C=C2c2ccccc2)Oc2ccccc21 (stereo not drawn)
inactive: 786-0 > 100 µM | A498 > 100 µM | A549 > 100 µM | COLO 205 > 100 µM | HCT-116 > 100 µM | HOP-92 > 100 µM | HT-29 > 100 µM | KM12 > 100 µM | M14 > 100 µM | NCI-H226 > 100 µM | NCI-H522 > 100 µM | SF-295 > 100 µM | SK-MEL-2 > 100 µM | SK-MEL-5 > 100 µM | SN12C > 100 µM | U-251 15.5 µM

Nc1cn(C2OC(CC(c3ccccc3)(c3ccccc3)c3ccccc3)C(O)C2O)c(=O)[nH]c1=O (stereo not drawn)
inactive: 786-0 21.4 µM | A498 39.6 µM | A549 23 µM | COLO 205 16.6 µM | HCT-116 17.6 µM | HOP-92 12.7 µM | HT-29 23.2 µM | KM12 31.3 µM | M14 22.5 µM | NCI-H226 73.8 µM | NCI-H522 19.2 µM | SF-295 30.1 µM | SK-MEL-2 28 µM | SK-MEL-5 20.5 µM | SN12C 22.1 µM | U-251 17.7 µM

COC(=O)C1C2C=CC(C2)N1[C@@H](C)c1ccccc1 (stereo partly drawn)
inactive: 786-0 > 100 µM | A498 > 100 µM | A549 > 100 µM | COLO 205 > 100 µM | HCT-116 > 100 µM | HOP-92 > 100 µM | HT-29 > 100 µM | KM12 > 100 µM | M14 > 100 µM | NCI-H522 > 100 µM | SF-295 > 100 µM | SF-539 > 100 µM | SK-MEL-2 > 100 µM | SK-MEL-5 > 100 µM | SN12C > 100 µM | U-251 > 100 µM

CC(C)C1CC(O)O[C@@H]([C@@H](C)[C@H]2CC(=O)[C@@H]3[C@@H]4[C@@H](O)[C@H](O)[C@H]5[C@@H](O)[C@H](O)CC[C@]5(C)[C@H]4CC[C@]23C)C1 (stereo partly drawn)
inactive: 786-0 48 µM | A549 53.1 µM | COLO 205 > 100 µM | HCT-116 29.4 µM | HOP-92 22.2 µM | HT-29 > 100 µM | KM12 28.6 µM | M14 91.6 µM | NCI-H226 > 100 µM | NCI-H522 70.1 µM | SF-295 47.8 µM | SF-539 > 100 µM | SK-MEL-2 53.6 µM | SK-MEL-5 52.2 µM | SN12C 28.7 µM | U-251 63 µM
